Results reported in publication PMC12035931, “Biologically active withanolides from Physalis peruviana” (Pharmaceutical Biology, 2025).
Counter-ions that a name gives are not always drawn. Like-named read-outs stand apart in the source and are kept apart here.

Legend:
[1] = tested on: TNF-α-induced NF-κB activity; experiment: Inhibition of TNF-α-activated NF-κB, luciferase reporter assay in HEK293 cells; type: cell-based, human; conditions: for inhibition at 50 µM: read-out: NF-κB assay % inhib.
Source text: To study the inhibition of tumor necrosis factor-alpha (TNF-α)-induced activation of nuclear factor-kappa B (NF-κB), human embryonic kidney 293 cells (HEK293) stably transfected with an NF-κB-responsive luciferase reporter construct (Cat. No. RC0014, Panomics, Fremont, CA, USA) were utilized, following previously described protocols (Kondratyuk et al. [2012]). This cell line incorporates a chromosomally integrated luciferase reporter, which produces luciferase enzyme upon NF-κB activation. The enzyme reacts with its substrate to produce a luminescent signal, detectable via luminometry. Cells were seeded at a density of 2 × 10^4 cells/mL in 96-well plates and cultured in Dulbecco’s Modified Eagle Medium (DMEM, Cat. No. D6429, Sigma-Aldrich, Saint Louis, MO, USA) supplemented with 10% fetal bovine serum (FBS, Cat. No. A5670701, Gibco™, Thermo Fisher Scientific, Waltham, MA, USA). The medium also contained 100 µg/mL streptomycin sulfate and 100 IU/mL penicillin G (Cat. No.15140 Gibco BRL, Grand Island, NY, USA). The cells were then treated with varying concentrations of the test sample and stimulated with recombinant human TNF-α (2 ng/mL, Cat. No. HZ-1014, Proteintech Group, Inc. Rosemont, IL, USA).
Following a 6-hour incubation, the cells were rinsed with phosphate buffer saline (PBS), lysed with 40 μL of 1X Reporter Lysis Buffer (Cat. No. E2661, Promega, Madison, WI, USA), and subjected to a freeze-thaw cycle (−80 °C/37 °C). Luminescence, generated by the luciferase reaction, was quantified using the Luc assay system (Cat. No. N1610, Promega, Madison, WI, USA) and a LUMIstar Galaxy luminometer (BMG, Offenburg, Germany).

[2] = tested on: RAW 264.7 cells; experiment: SRB cytotoxicity / survival of RAW 264.7 cells in the nitrite assay; type: cell-based, mouse; conditions: for Nitrite assay % surv.: % survival at a concentration of 50 μM, RAW 264.7; for cytotoxicity in NO assay: RAW 264.7 cells
Method: (§1) Test compounds were dissolved in phenol red-free DMEM (Cat. No. 12-917 F, Lonza, Massachusetts, USA) and added to the cells as a pretreatment for 30 min. The cells were then exposed to LPS (1 µg/mL, Cat. No. L-2762, Sigma-Aldrich, Saint Louis, MO, USA) for 20 h. Nitric oxide levels were quantified using the Griess reagent, which consists of a 1:1 (v/v) mixture of 1% sulfanilamide (Cat.No. A13001, Alfa Aesar, Massachusetts, USA) in H3PO4 and N-(1-naphthyl)ethylenediamine dihydrochloride (Cat. No. 102397, MP Biomedicals, USA). A standard curve was generated using sodium nitrite (Cat. No. 44227, Alfa Aesar, Massachusetts, USA), and IC50 values were calculated using Table Curve 2D software (Version 4.07, AISN Software Inc., Richmond, VA, USA). Also, a sulforhodamine B (SRB, Cat. No. S9012, Sigma-Aldrich, Saint Louis, MO, USA) assay was performed to assess the cytotoxic effects of the test compounds on RAW 264.7 cells.

[3] = tested on: human embryonic kidney 293 cells (HEK293); experiment: Cell survival in the NF-κB assay; type: cell-based
[4] = tested on: NO production in LPS-activated murine macrophage RAW 264.7 cells; experiment: cells; type: cell-based, mouse; conditions: for inhibition at 50 µM / IC50: Mus musculus; for inhibition at 50 µM: read-out: Nitrite assay % inhib.
Method: The inhibition of nitric oxide (NO) production in lipopolysaccharide (LPS)-stimulated murine macrophage RAW 264.7 cells was evaluated following previously described methods (Min et al. [2009]). RAW 264.7 cell line was purchased from ATCC (Cat. No. TIB-71, Manassas, VA, USA) and cultured in Dulbecco’s modified Eagle’s medium (DMEM, Cat. No. 12800-082, Invitrogen, Massachusetts, USA) supplemented with 10% heat-inactivated fetal bovine serum (FBS, Cat. No. 26140, Gibco BRL Co, Grand Island, NY, USA), 100× penicillin G and streptomycin (Cat. No.11074440001, Sigma-Aldrich, Saint Louis, MO, USA) and 2 mM L-glutamine (Cat. No. 25030, Gibco BRL Co, Grand Island, NY, USA). Cells were seeded at 10 × 10^5 cells per well in 96-well plates and incubated for 24 h at 37 °C in a humidified atmosphere containing 5% CO2.
as §1

[5] = Homo sapiens, HEK293, % inhibition at a concentration of 50 μM, TNF-α 2 ng/mL, 6 h
[6] = Homo sapiens, TNF-α-induced NF-κB luciferase, HEK293, read-out: NF-κB assay IC50
[7] = RAW264.7, read-out: Nitrite assay IC50
[8] = Homo sapiens, HEK293, read-out: NF-κB assay IC50
[9] = % survival at a concentration of 50 μM
[10] = RAW264.7, % inhibition of NO at 50 μM, LPS 1 µg/mL, 20 h
[11] = RAW264.7, LPS-activated RAW 264.7 cells, read-out: Nitrite assay IC50
[12] = acetate versus parent, from IC50

SMILES	inhibition at 50 µM [1, 5] [%]	IC50 [1, 6] [µM]	Nitrite assay % surv. [2] [%]	cytotoxicity in NO assay [2]	NF-κB assay % surv. ([3]; human, 6 h, 50 µM) [%]	inhibition at 50 µM ([4]; RAW264.7, 20 h) [%]	IC50 [4, 7] [µM]	inhibition at 50 µM ([1]; Homo sapiens, HEK293, 6 h) [%]	IC50 [1, 8] [µM]	NF-κB assay % surv. [3, 9] [%]	inhibition at 50 µM [4, 10] [%]	IC50 [4, 11] [µM]	NF-κB activity enhanced relative to parent compound [1, 12]	NO inhibitory activity ([4]; compared with positive control L-NMMA / within the series)	NF-κB activity diminished relative to parent compound [1, 12]	IC50 ([1]; TNF-α-induced NF-κB luciferase, HEK293, read-out: NF-κB assay IC50) [µM]
CC1=C(C)C(=O)OC(C(C)(O)C2(O)CCC3(O)C4CC(O)C5(O)C(O)C(O)CC(=O)C5(C)C4CCC32C)C1 [Compound 1, (20S,22R)-3α,4β,5α,6β,14α,17β,20β-heptahydroxy-1-oxowitha-24-ene-26,22-olide]	93.4 ± 1.2	0.01 ± 0.01	100 ± 1.1	without significant cytotoxicity	100 ± 24.5	82.4 ± 1.1	13.3 ± 0.2	–	–	–	–	–	–	–	–	–
CC1=C(C)C(=O)OC(C(C)(O)C2(O)CCC3(O)C4CC(Cl)C5(O)C(O)C=CC(=O)C5(C)C4CCC32C)C1 [Compound 2, (20S,22R)-4β,5β,14α,17β,20α-pentahydroxy-6α-chloro-1-oxowitha-2,24-diene-22,26-olide]	97.4 ± 1.1	0.06 ± 0.02	96.1 ± 3.2	without significant cytotoxicity	100.0 ± 14.4	99.4 ± 0.1	3.3 ± 0.3	–	–	–	–	–	–	–	–	–
CC(=O)OC1C=CC(=O)C2(C)C3CCC4(C)C(O)(CCC4(O)C(C)(O)C4CC(C)=C(C)C(=O)O4)C3CC(Cl)C12O (stereo not drawn) [Compound 2a]	92.2 ± 0.6	1.1 ± 0.42	93.2 ± 2.3	without significant cytotoxicity	12.3 ± 7.58	99.2 ± 2.6	8.7 ± 0.6	–	–	–	–	–	–	–	–	–
CO[C@H]1CC(=O)[C@]2(C)C3CC[C@@]4(C)C(=C3C[C@H]3O[C@]32[C@H]1O)CC[C@@]4(O)[C@@](C)(O)C1CC(C)=C(C)C(=O)O1 (stereo partly drawn) [Compound 4, physalactone]	–	–	90.7 ± 5.0	without significant cytotoxicity	–	–	–	66.7 ± 3.9	11 ± 2.3	100.0 ± 16.6	97.9 ± 2	1.8 ± 0.17	–	–	–	–
CO[C@H]1CC(=O)[C@]2(C)C3CC[C@@]4(C)C(=C3C[C@H]3O[C@]32[C@H]1OC(C)=O)CC[C@@]4(O)[C@@](C)(O)C1CC(C)=C(C)C(=O)O1 (stereo partly drawn) [Compound 4a]	–	–	40.3 ± 4.1	–	–	–	–	88 ± 1.3	0.33 ± 0.1	77.7 ± 5.3	99.8 ± 0.3	0.24 ± 0.01	over 30 fold	most active	–	–
CC1=C(C)C(=O)OC([C@](C)(O)[C@]2(O)CC[C@@]3(O)C4C[C@@H](O)C5=CC=CC(=O)[C@]5(C)C4CC[C@]23C)C1 (stereo partly drawn) [Compound 5, withaperuvin C]	85 ± 4.4	5.6 ± 2.1	79.3 ± 1.2	without significant cytotoxicity	100.0 ± 8.0	99.2 ± 0.7	2.4 ± 0.2	–	–	–	–	–	–	–	–	–
CC(=O)O[C@@H]1CC2C(CC[C@]3(C)[C@](O)([C@@](C)(O)C4CC(C)=C(C)C(=O)O4)CC[C@@]23O)[C@@]2(C)C(=O)C=CC=C12 (stereo partly drawn) [Compound 5a, withaperuvin C acetate]	78.3 ± 3	2.4 ± 1.7	98.8 ± 1.4	without significant cytotoxicity	47.0 ± 6.0	99 ± 0.3	1.8 ± 0.1	–	–	–	–	–	–	–	–	–
CC(=O)OC1C[C@H](O)CC2=CCC3C4CCC([C@@](C)(O)[C@H](O)C[C@@H]5COC(=O)[C@@]5(C)O)[C@@]4(C)CCC3[C@]21C (stereo partly drawn) [Compound 6, perulactone C]	56.1 ± 3.9	1.1 ± 0.48	95.3 ± 11.0	without significant cytotoxicity	36.5 ± 1.9	84.2 ± 3.7	11.8 ± 0.3	–	–	–	–	–	–	–	–	–
CC(=O)OC1C[C@H](OC(C)=O)CC2=CCC3C4CCC([C@@](C)(O)[C@@H](C[C@@H]5COC(=O)[C@@]5(C)O)OC(C)=O)[C@@]4(C)CCC3[C@]21C (stereo partly drawn) [Compound 6a]	77.4 ± 7.3	10.5 ± 2.55	92.0 ± 5.0	–	21.8 ± 0.8	20.6 ± 3	–	–	–	–	–	–	–	–	about 10 fold	–
CC1=C(CO)CC(C(C)(O)C2(O)CCC3(O)C4CC(O)C5(O)CC=CC(=O)C5(C)C4CCC32C)OC1=O (stereo not drawn) [Compound 7, phyperunolide B]	41 ± 6.9	–	100.0 ± 14.1	–	81.6 ± 8.4	7.4 ± 3.5	–	–	–	–	–	–	–	–	–	–
CC1=C(C)C(=O)OC(C(C)(O)C2(O)CC(O)C3(O)C4CC(O)C5(O)CC=CC(=O)C5(C)C4CCC32C)C1 (stereo not drawn) [Compound 8, coagulin H]	70.2 ± 8.1	8.9 ± 1.1	100.0 ± 6.3	–	82.2 ± 3.9	67.1 ± 2.2	16.7 ± 0.4	–	–	–	–	–	–	–	–	–
[H]/N=C(/NC)NCCC[C@H](N)C(=O)O [L-NMMA, L-N^G-Monomethyl arginine citrate, reference compound]	–	–	–	–	–	–	–	–	–	–	–	23.5 ± 3.4	–	–	–	–
Cc1ccc(S(=O)(=O)N[C@@H](Cc2ccccc2)C(=O)CCl)cc1 [TPCK, Nα-tosyl-L-phenylalanine chloromethyl ketone, reference compound]	–	–	–	–	–	–	–	–	–	–	–	–	–	–	–	7.08 ± 1.72
